Values quoted from earlier work in patent US20180104231A1, “BENZALKONIUM CHLORIDE FREE OPHTHALMIC COMPOSITION CONTAINING (+)-(S)-4-[4-CHLOROPHENYL) (2-PYRIDYL) METHOXY] PIPERDINO] BUTYRIC ACID OR PHARMACOLOGICALLY ACCEPTABLE ACID ADDITION SALT, THEREOF” (INTERA HEALTHCARE PLC, priority 2016, published 2018).

Key:
[1] = with the lapse of time
[2] = system: corneal epithelium and endothelium

Compound	Stability to light in an aqueous solution [1]	Effect of BAC exposure on cornea ([2]; BAC 0.0001%, minimum of 15 min exposure)	Effect of BAC on corneal epithelial cells ([2]; clinical concentration (0.005%))
O=C(O)CCCN1CCC(O[C@@H](c2ccc(Cl)cc2)c2ccccn2)CC1.O=S(=O)(O)c1ccccc1 [bepotastine besilate]	unstable to light	–	–
benzalkonium chloride [BAC]	–	physiological changes (edema) and ultra-structural changes to corneal epithelium and endothelium	cell wrinkling to lifting of corneal epithelial cells
